Data: BindingDB's records for doi:10.1016/j.chembiol.2011.05.012 (University of Bern, 2011)
Where “and” joins values, the source holds several entries; their conditions need not be identical. Equal entries are not always repeated.

Legend:
Cannabinoid receptor 1 = Cannabinoid receptor 1 (Homo sapiens, UniProt P21554); assay: Binding Assay
Source text: (§1) Binding assay with hCB1 and hCB2 receptors.

Cannabinoid receptor 2 = Cannabinoid receptor 2 (Homo sapiens, UniProt P34972); assay: Binding Assay
Source text: as §1

Cannabinoid receptor 1, sequence (P21554 whole entry): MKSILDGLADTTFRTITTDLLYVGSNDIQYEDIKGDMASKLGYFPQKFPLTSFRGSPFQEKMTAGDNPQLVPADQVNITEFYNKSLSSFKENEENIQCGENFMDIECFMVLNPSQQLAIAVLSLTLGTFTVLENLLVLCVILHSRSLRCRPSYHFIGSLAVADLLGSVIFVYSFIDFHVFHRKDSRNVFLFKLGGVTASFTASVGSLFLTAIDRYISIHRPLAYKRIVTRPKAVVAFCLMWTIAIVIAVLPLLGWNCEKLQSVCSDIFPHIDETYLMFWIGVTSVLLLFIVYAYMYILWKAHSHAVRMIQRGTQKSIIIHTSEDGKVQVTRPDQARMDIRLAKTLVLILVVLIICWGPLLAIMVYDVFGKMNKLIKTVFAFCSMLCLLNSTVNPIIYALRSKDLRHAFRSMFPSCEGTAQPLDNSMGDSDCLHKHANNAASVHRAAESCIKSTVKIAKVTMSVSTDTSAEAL
Cannabinoid receptor 2, sequence (P34972 whole entry): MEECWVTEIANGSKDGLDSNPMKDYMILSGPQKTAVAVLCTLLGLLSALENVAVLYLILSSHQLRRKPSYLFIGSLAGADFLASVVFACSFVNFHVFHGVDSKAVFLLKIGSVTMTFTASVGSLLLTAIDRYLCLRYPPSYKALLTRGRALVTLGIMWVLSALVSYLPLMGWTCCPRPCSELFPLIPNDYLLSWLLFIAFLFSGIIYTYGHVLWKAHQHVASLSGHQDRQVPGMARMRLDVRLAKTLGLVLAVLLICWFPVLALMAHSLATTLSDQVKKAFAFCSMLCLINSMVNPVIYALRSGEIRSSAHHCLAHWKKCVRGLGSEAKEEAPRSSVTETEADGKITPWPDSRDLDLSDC

| Compound | Ki (Cannabinoid receptor 1) | Ki (Cannabinoid receptor 2) |
| --- | --- | --- |
| CCCc1ccc(O)c(-c2ccc(O)c(CCC)c2)c1 | > 5 µM | 1.3 µM |
| CCCc1ccc(O)c(-c2ccc(OC)c(CCC)c2)c1 | > 2 µM | 0.074 µM |
| C=CCc1ccc(O)c(-c2cc(CC=C)ccc2O)c1 [2-(2-hydroxy-5-prop-2-enylphenyl)-4-prop-2-enylphenol] | – | > 2 µM |
| CCCCC/C=C/C/C=C/C/C=C/C/C=C/CCCC(=O)OC(CO)CO [2-Arachidonoylglycerol, 2-AG] | – | 0.892 µM |
| C=CCc1ccc(O)c(-c2ccc(O)c(CC=C)c2)c1 [3',5-diallylbiphenyl-2,4'-diol] | – | 1.76 µM |
| C=CCc1ccc(O)c(-c2ccc(OC)c(/C=C/C)c2)c1 [Magreth-3a] | > 5 µM | 0.0408 µM and 0.0591 µM |
| C=CCc1ccc(O)c(-c2ccc(O)c(/C=C/C)c2)c1 [Magreth-4] | > 5 µM | 1.76 µM |
| C=CCc1cc(-c2cc(CC(C)Br)ccc2O)ccc1OC (stereo unspecified) [Magreth-11a] | > 5 µM | 1.07 µM |
| C=CCc1ccc(O)c(-c2ccc(OC)c(CC(C)Br)c2)c1 (stereo unspecified) [Magreth-11b] | 0.86 µM | 0.084 µM |
| COc1ccc(-c2cc(CC(C)Br)ccc2O)cc1CC(C)Br (stereo unspecified) [Magreth-11c] | > 5 µM | 0.427 µM |
| C=CCc1cc(-c2cc(CC(C)Br)ccc2O)ccc1O (stereo unspecified) [Magreth-12a] | > 5 µM | 1.26 µM |
| CC(Br)Cc1ccc(O)c(-c2ccc(O)c(CC(C)Br)c2)c1 (stereo unspecified) [Magreth-12b] | > 5 µM | 0.68 µM |
| C=CCc1ccc(O)c(-c2ccc(OC)c(CC=C)c2)c1 [Magreth-14a] | 0.79 µM | 0.0439 µM and 0.138 µM |
| C=CCc1ccc(OCC)c(-c2ccc(O)c(CC=C)c2)c1 [Magreth-16a] | – | 0.051 µM |
| C=CCc1ccc(O)c(-c2ccc(OCC)c(CC=C)c2)c1 [Magreth-16b] | 0.97 µM | 0.04 µM |
| C=CCc1ccc(OCCC)c(-c2ccc(O)c(CC=C)c2)c1 [Magreth-17a] | > 5 µM | 0.057 µM |
| C=CCc1ccc(O)c(-c2ccc(OCCC)c(CC=C)c2)c1 [Magreth-17b] | > 5 µM | 0.046 µM |
| C=CCc1ccc(OCCCCC)c(-c2ccc(O)c(CC=C)c2)c1 [Magreth-18a] | > 5 µM | 0.102 µM |
| C=CCc1ccc(O)c(-c2ccc(OCCCCC)c(CC=C)c2)c1 [Magreth-18b] | > 5 µM | > 3 µM |
| C=CCc1ccc(OCC)c(-c2ccc(OCC)c(CC=C)c2)c1 [Magreth-19] | > 3 µM | 0.134 µM |
